This note sets out measurements from patent EP0535155B1, “LIBRARIES OF MODIFIED PEPTIDES WITH PROTEASE RESISTANCE” (CHIRON CORPORATION, priority 1990, dated 2002).

For data set [1], the system named is chymotrypsin. Kind of data set: in vitro. Particulars: isolated enzyme chymotrypsin, pH 8.
Method: (§1) Each substrate was dissolved to 0.5 mg/mL in 10% DMSO, 100 mM Tris, 100 mM CaCl2, pH 8.0. Either trypsin or chymotrypsin was dissolved to 1 mg/mL in 0.001M HCI. At t=0, 10λ of enzyme or 0.001M HCI was added to 200λ of either the peptoid or peptide solution and incubated at 37°C. At the appropriate times, 50λ was removed and quenched with 50λ of 20% HOAc and assayed by HPLC on a C4 column with detection at 280 nm. The data below is given in percent area remaining on parent peak.
The subject of data set [2] is trypsin.
Method: as §1
Data set [3] relates to chymotrypsin.
Method: as §1
Data set [4] deals with trypsin. Kind of data set: Proteolysis of peptoids and peptides by trypsin (RP-HPLC). Particulars: trypsin (isolated protease) in Tris buffer, pH 8.
Method: as §1
A further data set can be described thus: physchem. Particulars: buffer or solvent, pH 8.
Data set [5] relates to chymotrypsin. The experiment in a line: Proteolysis of peptoids and peptides by chymotrypsin (RP-HPLC). Particulars: chymotrypsin (isolated protease) in Tris buffer, pH 8.
Method: as §1

SMILES strings stand for the structures. Where a SMILES comes first, the peptide text is derived from it. The star is where a group is joined. Fmoc = O=C(OCC1c2ccccc2-c2ccccc21)*

Method for physchem: as §1

Broadly, the amount remaining is what is left of the initial amount, in per cent. Turning to `CC(C)C[C@H](NC(=O)OCC1c2ccccc2-c2ccccc21)C(=O)N[C@@H](CC(=O)O)C(=O)N[C@@H](Cc1ccccc1)C(=O)N[C@@H](CO)C(=O)N[C@@H](CCCCN)C(=O)NCC(=O)O` [PEPTIDE, FMOC-LDFSKG-OH] (Fmoc-LDFSKG-OH), in the data set with chymotrypsin [1], the metabolised at 10 min, 0.476 mg/mL was ~60% and the amount remaining at 3 h, 0.476 mg/mL came out at 0%. In the data set with trypsin [2], the “time in which cleavage was complete” value is ≤ 5 min. Also, the “cleavage at the second site” value in the data set on chymotrypsin [3] is “not cbmpletely cleaved”. Besides, in the data set with trypsin [4], the fraction remaining at 5 min, 0.476 mg/mL was found to be 0%; the amount remaining at 10 min, 0.476 mg/mL came to 0%; the share remaining at 3 h, 0.476 mg/mL worked out at 0%. For the same molecule, in the data set “physchem”, the share remaining at 5 min, 0.476 mg/mL turned out to be 100%; the fraction remaining at 10 min, 0.476 mg/mL was 100%; the share remaining at 3 h, 0.476 mg/mL was < 100%. In the data set with chymotrypsin [5], the share remaining at 5 min, 0.476 mg/mL was found to be 75% and the fraction remaining at 10 min, 0.476 mg/mL was found to be 41%.
